According to PMC5114172 (Journal of applied toxicology : JAT, 2016):
Where two headings read alike, the source gives them in different places.

Tests used:
[1] = test system: MD-PBMCs; experiment: IL-1β secretion; type: cell-based, human
[2] = test system: highly purified human NKs; conditions: NK cells, ref Brown and Whalen, 2015, cited from earlier work
[3] = test system: monocyte-depleted PBMCs; conditions: MD-PBMCs, ref Brown and Whalen, 2015, cited from earlier work

CC(C)(C)c1ccc(S(=O)(=O)/C=C/C#N)cc1 [BAY 11-7085, reference compound]
Interleukin 1 beta secreted ([1]; donor F244, 24 h, BAY 11-7085 alone (0 DBT)): 836 ± 8 pg/mL | Interleukin 1 beta secreted ([1]; donor F245, 24 h, BAY 11-7085 alone (0 DBT)): 536 ± 51 pg/mL | Interleukin 1 beta secreted ([1]; donor F333, 24 h, BAY 11-7085 alone (0 DBT)): 2039 ± 62 pg/mL | Interleukin 1 beta secreted ([1]; donor F334, 24 h, BAY 11-7085 alone (0 DBT)): 703 ± 70 pg/mL | effect on baseline IL-1β secretion ([1]; inhibitor alone): varying effects

CC(=O)N[C@@H](Cc1ccc(O)cc1)C(=O)N[C@H](C(=O)N[C@@H](C)C(=O)N[C@@H](CC(=O)O)C(=O)CCl)C(C)C [Caspase-1 Inhibitor II, reference compound]
effect on baseline IL-1β production ([1]; 50 μM, cells from each donor, p<0.05): significantly decreased | Interleukin 1 beta secreted ([1]; donor F240, 24 h, Caspase-1 inhibitor II 50 μM alone (0 DBT)): 237 ± 19 pg/mL | Interleukin 1 beta secreted ([1]; donor F242, 24 h, Caspase-1 inhibitor II 50 μM alone (0 DBT)): 460 ± 15 pg/mL | Interleukin 1 beta secreted ([1]; donor F244, 24 h, Caspase-1 inhibitor II 50 μM alone (0 DBT)): 233 ± 11 pg/mL | Interleukin 1 beta secreted ([1]; donor F245, 24 h, Caspase-1 inhibitor II 50 μM alone (0 DBT)): 150 ± 8 pg/mL | Interleukin 1 beta secreted ([1]; donor F254, 24 h, Caspase-1 inhibitor II 50 μM alone (0 DBT)): 39 ± 4 pg/mL

Oc1ccc(-c2nc(-c3ccncc3)c(-c3ccc(F)cc3)[nH]2)cc1 [SB202190, reference compound]
effect on baseline secretion ([1]; 3 of the 4 donors, in 1 donor it greatly increased secretion): significantly decreased | Interleukin 1 beta secreted ([1]; donor F247, 24 h, SB202190 alone (0 DBT)): 1613 ± 141 pg/mL | Interleukin 1 beta secreted ([1]; donor F262, 24 h, SB202190 alone (0 DBT)): 149 ± 41 pg/mL | Interleukin 1 beta secreted ([1]; donor F372, 24 h, SB202190 alone (0 DBT)): 36 ± 3 pg/mL | Interleukin 1 beta secreted ([1]; donor F385, 24 h, SB202190 alone (0 DBT)): 357 ± 61 pg/mL

CCC[CH2][Sn]([CH2]CCC)[CH2]CCC [TBT, tributyltin]
fold increase in IL-1β secretion ([2]; donor KB169, 50 nM TBT): 7.7 fold | fold increase in IL-1β secretion ([2]; donor KB169, 100 nM TBT): 6.3 fold | fold increase in IL-1β secretion ([3]; donor F142, 24 h, 50 nM TBT): 2.1 fold | fold increase in IL-1β secretion ([3]; donor F142, 24 h, 100 nM TBT): 1.8 fold | fold increase in IL-1β secretion ([3]; donor F145, 24 h, 50 nM TBT): 1.8 fold | fold increase in IL-1β secretion ([3]; donor F145, 24 h, 100 nM TBT): 1.5 fold | fold increase in IL-1β secretion ([3]; third common donor (F152), 24 h, 50 nM TBT): 11 fold

N#CC(=C(/N)Sc1ccccc1N)/C(C#N)=C(/N)Sc1ccccc1N [U0126, reference compound]
Interleukin 1 beta secreted ([1]; donor F240, 24 h, U0126 50 μM alone (0 DBT)): 1756 ± 54 pg/mL | Interleukin 1 beta secreted ([1]; donor F242, 24 h, U0126 50 μM alone (0 DBT)): 479 ± 29 pg/mL | Interleukin 1 beta secreted ([1]; donor F244, 24 h, U0126 50 μM alone (0 DBT)): 119 ± 28 pg/mL | Interleukin 1 beta secreted ([1]; donor F245, 24 h, U0126 50 μM alone (0 DBT)): 255 ± 25 pg/mL
